# Experimental data as given in patent US10005767B2, “Compositions and methods for inhibition of the JAK pathway” (Rigel Pharmaceuticals, Inc., priority 2009, dated 2018).
# Tested on: human primary T-cells, IL-2 stimulated proliferation (JAK-1 and JAK-3 dependent; reported as JAK3 activity)
# Assay: Human primary T-cell proliferation stimulated by IL-2 (Example 3)
# Format: cell-based
# Conditions: Homo sapiens, T-cell, tested under conditions described in Example 3 (IL-2 stimulated human primary T-cell proliferation); read-out: ability to inhibit JAK3 activity, IC50 range (Table V)
# Outline: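 Peripheral-blood human T-cells pre-activated via TCR/CD28, IL-2-starved overnight, then cultured 72 h at 37 °C with compound in Yssel's medium containing IL-2 (80 U/mL in cell suspension). Proliferation read as viable-cell ATP by CellTiter-Glo luminescence; reduction versus control taken as JAK pathway inhibition.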
row,Structure (SMILES),IC50 [nM]
1,"Cc1cnc(Nc2cnc(N3CCN4CCC3CC4)c(Cl)c2)nc1Nc1ccc2oc(=O)[nH]c2c1 [II-150, 5-(2-(6-(1,4-diazabicyclo[3.2.2]nonan-4-yl)-5-chloropyridin-3-ylamino)-5-methylpyrimidin-4-ylamino)benzo[d]oxazol-2(3H)-one]",< 500
2,"Cc1cnc(Nc2ccc(C(=O)NC3CCC3)nc2)nc1Nc1ccc2oc(=O)[nH]c2c1 [II-151, 5-[5-Methyl-4-(2-oxo-2,3-dihydro-benzooxazol-5-ylamino)-pyrimidin-2-ylamino]-pyridine-2-carboxylic acid cyclobutylamide]",< 500
3,"COc1cncc(Nc2ncc(C)c(Nc3ccc4oc(=O)[nH]c4c3)n2)c1 [II-152, N2-(5-methoxypyridin-3-yl)-5-methyl-N4-(2-oxo-2,3-dihydro-1,3-benzoxazol-5-yl)-2,4-pyrimidinediamine]",> 10000
4,"Cc1cc(Nc2ncc(C)c(Nc3ccc4oc(=O)[nH]c4c3)n2)cnc1C [II-153, N2-(2,3-dimethylpyridin-5-yl)-5-methyl-N4-(2-oxo-2,3-dihydro-1,3-benzoxazol-5-yl)-2,4-pyrimidinediamine]",< 500
5,"Cc1cnc(Nc2ccc3c(c2)CNC3)nc1Nc1ccc2oc(=O)[nH]c2c1 [III-1, N4-(benzo[d]oxazol-2(3H)-on-5-yl)-N2-(isoindolin-5-yl)-5-methylpyrimidine-2,4-diamine]",< 500
6,"Cc1cnc(Nc2ccc3c(c2)CN(O)C3)nc1Nc1ccc2oc(=O)[nH]c2c1 [III-2, N4-(benzo[d]oxazol-2(3H)-on-5-yl)-N2-(2-hydroxyisoindolin-5-yl)-5-methylpyrimidine-2,4-diamine]",< 500
7,"Cc1cnc(Nc2ccc3c(c2)CN(C)C3)nc1Nc1ccc2oc(=O)[nH]c2c1 [III-4, N4-(benzo[d]oxazol-2(3H)-on-5-yl)-N2-(2-methylisoindolin-5-yl)-5-methylpyrimidine-2,4-diamine]",< 500
8,"CCN1Cc2ccc(Nc3ncc(C)c(Nc4ccc5oc(=O)[nH]c5c4)n3)cc2C1 [III-5, N4-(benzo[d]oxazol-2(3H)-on-5-yl)-N2-(2-ethylisoindolin-5-yl)-5-methylpyrimidine-2,4-diamine]",< 500
9,"CCCN1Cc2ccc(Nc3ncc(C)c(Nc4ccc5oc(=O)[nH]c5c4)n3)cc2C1 [III-6, N4-(benzo[d]oxazol-2(3H)-on-5-yl)-N2-(2-n-propylisoindolin-5-yl)-5-methylpyrimidine-2,4-diamine]",< 500
10,"Cc1cnc(Nc2ccc3c(c2)CN(CC(C)C)C3)nc1Nc1ccc2oc(=O)[nH]c2c1 [III-8, N4-(benzo[d]oxazol-2(3H)-on-5-yl)-N2-(2-isobutylisoindolin-5-yl)-5-methylpyrimidine-2,4-diamine]",< 500
11,"Cc1cnc(Nc2ccc3c(c2)CN(CCC(C)C)C3)nc1Nc1ccc2oc(=O)[nH]c2c1 [III-9, N4-(benzo[d]oxazol-2(3H)-on-5-yl)-N2-(2-isopentylisoindolin-5-yl)-5-methylpyrimidine-2,4-diamine]",< 500
12,"Cc1cnc(Nc2ccc3c(c2)CN(CC2CCCC2)C3)nc1Nc1ccc2oc(=O)[nH]c2c1 [III-10, N4-(benzo[d]oxazol-2(3H)-on-5-yl)-N2-(2-cyclopentylmethylisoindolin-5-yl)-5-methylpyrimidine-2,4-diamine]",< 500
13,"CC(=O)N1Cc2ccc(Nc3ncc(C)c(Nc4ccc5oc(=O)[nH]c5c4)n3)cc2C1 [III-12, 5-[2-(2-Acetyl-2,3-dihydro-1H-isoindol-5-ylamino)-5-methyl-pyrimidin-4-ylamino]-3H-benzooxazol-2-one]",< 500
14,"Cc1cnc(Nc2ccc3c(c2)CN(C(=O)C(C)(C)C)C3)nc1N(C(=O)C(C)(C)C)c1ccc2oc(=O)n(C(=O)C(C)(C)C)c2c1 [III-13, N-{2-[2-(2,2-Dimethyl-propionyl)-2,3-dihydro-1H-isoindol-5-ylamino]-5-methyl-pyrimidin-4-yl}-N-[3-(2,2-dimethyl-propionyl)-2-oxo-2,3-dihydro-benzooxazol-5-yl]-2,2-dimethyl-propionamide]",< 500
15,"Cc1cnc(Nc2ccc3c(c2)CN(S(C)(=O)=O)C3)nc1Nc1ccc2oc(=O)[nH]c2c1 [III-14, 5-[2-(2-Methanesulfonyl-2,3-dihydro-1H-isoindol-5-ylamino)-5-methyl-pyrimidin-4-ylamino]-3H-benzooxazol-2-one]",< 500
16,"Cc1cnc(Nc2ccc3c(c2)CCC(N2CCCC2)CC3)nc1Nc1ccc2oc(=O)[nH]c2c1 (centres unmarked) [IV-1, N4-(benzo[d]oxazol-2(3H)-on-5-yl)-N2-(7-(pyrrolidin-1-yl)-6,7,8,9-tetrahydro-5H-benzo[7]annulen-2-yl)-5-methylpyrimidine-2,4-diamine]",< 500
17,"Cc1cnc(Nc2ccc3c(c2)C(=O)CCCC3)nc1Nc1ccc2oc(=O)[nH]c2c1 [IV-2, N4-(benzo[d]oxazol-2(3H)-on-5-yl)-N2-(6,7,8,9-tetrahydro-5H-benzo[7]annulen-5-on-3-yl)-5-methylpyrimidine-2,4-diamine]",< 500
18,"Cc1cnc(Nc2ccc(N3CCN(C)CC3)nn2)nc1Nc1ccc2oc(=O)[nH]c2c1 [IV-3, N4-(benzo[d]oxazol-2(3H)-on-5-yl)-N2-(6-(4-methylpiperazin-1-yl)pyridazin-3-yl)-5-methylpyrimidine-2,4-diamine]",> 10000
19,"Cc1cnc(Nc2ccc3cn[nH]c3c2)nc1Nc1ccc2oc(=O)[nH]c2c1 [IV-4, N4-(benzo[d]oxazol-2(3H)-on-5-yl)-N2-(1H-indazol-6-yl)-5-methylpyrimidine-2,4-diamine]",< 500
20,"Cc1cnc(Nc2ccc3cnoc3c2)nc1Nc1ccc2oc(=O)[nH]c2c1 [IV-5, N4-(benzo[d]oxazol-2(3H)-on-5-yl)-N2-(1,2-benzisoxazol-6-yl)-5-methylpyrimidine-2,4-diamine]",< 500
21,"Cc1cnc(Nc2ccc3[nH]ncc3c2)nc1Nc1ccc2oc(=O)[nH]c2c1 [IV-6, N4-(benzo[d]oxazol-2(3H)-on-5-yl)-N2-(1H-indazol-5-yl)-5-methylpyrimidine-2,4-diamine]",< 500
22,"Cc1cnc(Nc2ccnc(N3CCNCC3)c2)nc1Nc1ccc2oc(=O)[nH]c2c1 [IV-7, N4-(benzo[d]oxazol-2(3H)-on-5-yl)-N2-[2-(piperazino)pyridin-4-yl]-5-methylpyrimidine-2,4-diamine]",5000 to 10000
23,"Cc1cnc(Nc2ccnc(N3CCN(C)CC3)c2)nc1Nc1ccc2oc(=O)[nH]c2c1 [IV-8, N4-(benzo[d]oxazol-2(3H)-on-5-yl)-N2-[2-(4-methylpiperazino)pyridin-4-yl]-5-methylpyrimidine-2,4-diamine]",> 10000
24,"Cc1cnc(Nc2ccc3onc(C)c3c2)nc1Nc1ccc2oc(=O)[nH]c2c1 [IV-9, N4-(benzo[d]oxazol-2(3H)-on-5-yl)-N2-(3-methyl-1,2-benzisoxazol-5-yl)-5-methylpyrimidine-2,4-diamine]",< 500

# Same assay, conditions: tested under conditions described in Example 3 (IL-2 stimulated human primary T-cell proliferation); read-out: ability to inhibit JAK3 activity, IC50 range (Table V)
row,Structure (SMILES),IC50 [nM]
1,"Cc1cnc(Nc2ccc3c(c2)CN(C(=O)OC(C)(C)C)C3)nc1Nc1ccc2oc(=O)[nH]c2c1 [III-3, N4-(benzo[d]oxazol-2(3H)-on-5-yl)-N2-(2-tert-butoxoxycarbonylisoindolin-5-yl)-5-methylpyrimidine-2,4-diamine]",< 500
2,"Cc1cnc(Nc2ccc3c(c2)CN(CC2CC2)C3)nc1Nc1ccc2oc(=O)[nH]c2c1 [III-7, N4-(benzo[d]oxazol-2(3H)-on-5-yl)-N2-(2-cyclopropylmethylylisoindolin-5-yl)-5-methylpyrimidine-2,4-diamine]",< 500
